In test [1] the test system is hESC-derived ECs versus ACL cells. The experiment in a line: High-throughput screening of LOPAC library, PrestoBlue cell viability, hESC-derived ECs versus ACL cells. The following applies: LOPAC screen, 4.5 μM, 4 days of incubation, PrestoBlue assay. Type of test: cell-based, human. On the procedure: (§1) High-throughput screening (HTS). HUAECS (Lonza) and hESC-derived ECs were cultured in EGM-2 medium while human anterior cruciate ligament cells (ACL cells) were cultured in Dulbecco's modified Eagle's medium (DMEM; PAA) supplemented with 10% FBS, 0.2 mM ascorbic acid 2-phosphate magnesium salt (Sigma Aldrich), […] streptomycin and 100 U/mL penicillin (Life Technologies). ACL cells were isolated from patients that have signed an informed consent form, in compliance with the Dutch legislation. The ethical committee of Medisch Spectrum Twente Hospital approved the collection.
(§2) The LOPAC library (Sigma-Aldrich) was used to screen embryonic endothelial-specific cytotoxic compounds. The compounds were solubilized in DMSO. The final compound concentration used in the screen was 4.5 μM in a final volume of 200 μL per well (96-well plate). HUAECs, hESC-derived EC and ACL cells were seeded at 16,000 cells/well (HUAECs and hESC-derived ECs) and 5,000 cells/well (ACL cells) and allowed to reach near confluence (approximately two days). After two days, medium was exchanged and test compounds and controls were added to the 96-well plates (all wells contained 0.25% (v/v) DMSO). After 4 days of incubation, cell viability was assessed using a PrestoBlue (Invitrogen) assay. This assay is based on a resazurin-based solution that indicates the reducing power of living cells and therefore measures indirectly their number. For each measurement, cell medium was removed and the PrestoBlue solution (10%) was added for 3 h at 37° C. upon which the absorbance was measured at 560-590 nm.
(§3) Disruption of vascular development has been directly correlated with prenatal loss, malformations and neurodevelopmental problems^41-44. […] The library was screened at a single dosage of 4.5 μM in a volume of 200 μL per well of EGM-2 medium, containing 0.25% DMSO (v/v). […] Six compounds (danazol, chlorpromazine hydrochloride, ellipticine, 3′,4′-dichlorobenzamil, fluphenazine dihydrochloride and 7-cyclopentyl-5-(4-phenoxy)phenyl-7H-pyrrolo[2,3-d]pyrimidin-4-ylamine) affected cell viability in both cells by a difference of 20% (FIG. 4B). The six compounds belong to different classes: cell cycle, ion pumps, dopamine pathway, phosphorylation and hormone signaling. The compounds selected from the primary screen were then tested against hESC-derived ECs and HUAECs at eight different concentrations to obtain a dose-response curve (FIG. 4C and FIG. 14).

Test [2] deals with hESC-derived ECs versus HUAECs. Put plainly: High-throughput screening of LOPAC library, PrestoBlue cell viability, hESC-derived ECs versus HUAECs. Type of test: cell-based, human. The settings on record: LOPAC screen, 4.5 μM, 4 days, PrestoBlue assay. The method, then: as §1, §2, §3

The values that follow come from US10526580B2, “Differentiated cell population of endothelial cells derived from human pluripotent stem cells, composition, system, kit and uses thereof” (BIOCANT-ASSOCIAÇÃO DE TRANSFERÊNCIA DE TECNOLOGIA, priority 2012, dated 2020).

Structures can show the parent of a compound that is named as a salt.

For the compound `N/C(=N\C(=O)c1nc(Cl)c(N)nc1N)NCc1ccc(Cl)c(Cl)c1` [3′,4′-Dichlorobenzamil], the “Differences (%) in cell viability (hESC-Derived ECs versus ACL cells)” value (from here on “Differences (%) in cell viability”) in test [1] amounted to 54.2%. Besides, the “difference in cell viability between hESC-derived ECs and HUAECs” value in test [2] is recorded as 20%.
`CN(C)CCCN1c2ccccc2Sc2ccc(Cl)cc21` [Chlorpromazine hydrochloride]: in test [1], the “Differences (%) in cell viability” value stood at 57.2%. In addition, the “difference in cell viability between hESC-derived ECs and HUAECs” value in test [2] came to 20%.
On the same counts, the results for `C#C[C@]1(O)CC[C@H]2[C@@H]3CCC4=Cc5oncc5C[C@]4(C)[C@H]3CC[C@@]21C` [Danazol] are 52.7% and 20%.
Turning to `Cc1c2ccncc2c(C)c2c1[nH]c1ccccc12` [Ellipticine], the “Differences (%) in cell viability” value in test [1] is reported as 58.5%. Moreover, in test [2], the “difference in cell viability between hESC-derived ECs and HUAECs” value is listed as 20%.
On the same counts, the results for `OCCN1CCN(CCCN2c3ccccc3Sc3ccc(C(F)(F)F)cc32)CC1` [Fluphenazine dihydrochloride] are 51.4% and 20%.
As to `COC[C@H]1OC(=O)c2coc3c2[C@@]1(C)C1=C(C3=O)[C@@H]2CCC(=O)[C@@]2(C)C[C@H]1OC(C)=O` [Wortmannin from Penicillium funiculosum, Wortmannin], in test [1], the “Differences (%) in cell viability” value is recorded as 57.9%.
Still for that read-out and setting: as for `CC(Oc1ccc(Oc2cnc3ccc(Cl)cc3n2)cc1)C(=O)O` (stereo not drawn) [XK469], the figure is 75.9%; as for `COc1cc(-c2ccc(=O)[nH]n2)ccc1OC(F)F` [Zardaverine], 84.0%; as for `Cl.Cl.OCCN1CCN(CC/C=C2/c3ccccc3Sc3ccc(C(F)(F)F)cc32)CC1` [cis-(Z)-Flupenthixol dihydrochloride], 69.6%.
Take (±)-Butaclamol hydrochloride: in test [1], the “Differences (%) in cell viability” value is reported as 53.6%.
Take Ivermectin: the “Differences (%) in cell viability” value in test [1] is given as 78.7%.
Same read-out and setting: the figure for R-(−)-Fluoxetine hydrochloride is 54.5%; for Vinblastine sulfate salt it is 92.8%.
